According to PubChem BioAssay AID588645 (Sanford-Burnham Center for Chemical Genomics, 2011):
The source made the active and inactive calls. The rule behind the calls is not given here.

target: Intestinal-type alkaline phosphatase (Homo sapiens) (UniProt P09923); test: human IAP enzyme inhibitors, SAR follow-up, mouse IAP inhibitor project, biochemical, set 2 (AID 588645); details: human intestinal alkaline phosphatase enzymatic inhibition assay
Sequence (P09923 whole entry, looked up): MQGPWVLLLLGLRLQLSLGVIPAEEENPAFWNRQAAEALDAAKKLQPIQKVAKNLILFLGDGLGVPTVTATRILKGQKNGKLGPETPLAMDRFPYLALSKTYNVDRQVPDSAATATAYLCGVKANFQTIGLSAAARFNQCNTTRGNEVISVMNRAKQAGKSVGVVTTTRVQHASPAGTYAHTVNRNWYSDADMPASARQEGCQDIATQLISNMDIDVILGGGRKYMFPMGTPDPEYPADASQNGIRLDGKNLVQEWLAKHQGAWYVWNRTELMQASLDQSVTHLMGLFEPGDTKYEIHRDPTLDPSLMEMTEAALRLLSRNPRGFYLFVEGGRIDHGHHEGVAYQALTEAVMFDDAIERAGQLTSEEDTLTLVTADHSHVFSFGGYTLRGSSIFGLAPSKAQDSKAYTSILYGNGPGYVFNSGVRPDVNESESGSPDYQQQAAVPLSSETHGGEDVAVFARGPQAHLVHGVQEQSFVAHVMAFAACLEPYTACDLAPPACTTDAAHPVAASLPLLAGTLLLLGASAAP

| IC50 | Compound |
| --- | --- |
| > 100 µM (inactive) | COc1ccc(CNC(=O)CCCNS(=O)(=O)c2ccc3[nH]c(=O)oc3c2)cc1OC |
| > 100 µM (inactive) | O=C(CCCNS(=O)(=O)c1ccc2[nH]c(=O)oc2c1)NCCc1ccc(O)cc1 |
| > 100 µM (inactive) | COc1ccc(NC(=O)CCCNS(=O)(=O)c2ccc3[nH]c(=O)oc3c2)c(OC)c1 |
| > 100 µM (inactive) | COc1ccccc1CNC(=O)CCNS(=O)(=O)c1ccc2[nH]c(=O)oc2c1 |
| > 100 µM (inactive) | CCc1ccc(NC(=O)CCNS(=O)(=O)c2ccc3c(c2)oc(=O)n3C)cc1 |
| > 100 µM (inactive) | Cc1ccc(NC(=O)CCNS(=O)(=O)c2ccc3c(c2)oc(=O)n3C)cc1C |
| > 100 µM (inactive) | COc1ccc(NC(=O)CCNS(=O)(=O)c2ccc3ccccc3c2)cc1OC |
| > 100 µM (inactive) | COc1ccc(CNC(=O)CCNS(=O)(=O)c2ccc3[nH]c(=O)oc3c2)c(OC)c1 |
| > 100 µM (inactive) | O=C(CCNS(=O)(=O)c1ccc2[nH]c(=O)oc2c1)NCc1ccc2c(c1)OCO2 |
| > 100 µM (inactive) | O=C(CCNS(=O)(=O)c1ccc2c(c1)CCC2)NCCc1ccc2c(c1)OCO2 |
| > 100 µM (inactive) | COc1ccc(CNC(=O)CNS(=O)(=O)c2ccc3[nH]c(=O)oc3c2)cc1 |
| > 100 µM (inactive) | O=C(CNS(=O)(=O)c1ccc2[nH]c(=O)oc2c1)NCCc1ccc2c(c1)OCO2 |
| > 100 µM (inactive) | O=C(CCNS(=O)(=O)c1ccc2ccccc2c1)NCCc1ccc2c(c1)OCO2 |
| > 100 µM (inactive) | O=C(CCNS(=O)(=O)c1ccc2[nH]c(=O)oc2c1)NCc1cccc(Cl)c1 |
| > 100 µM (inactive) | Cc1ccc(NC(=O)CCNS(=O)(=O)c2ccc3[nH]c(=O)oc3c2)cc1C |
| > 100 µM (inactive) | O=C(CCCNS(=O)(=O)c1ccc2[nH]c(=O)oc2c1)NCc1ccccc1Cl |
| > 100 µM (inactive) | O=C(CCNS(=O)(=O)c1ccc2[nH]c(=O)oc2c1)NCc1ccc(Cl)cc1 |
| > 100 µM (inactive) | Cc1ccccc1CNC(=O)CCCNS(=O)(=O)c1ccc2[nH]c(=O)oc2c1 |
| > 100 µM (inactive) | O=C(CCNS(=O)(=O)c1ccc2[nH]c(=O)oc2c1)NCc1cccc(F)c1 |
| > 100 µM (inactive) | COc1cccc(CNS(=O)(=O)c2ccc3[nH]c(=O)oc3c2)c1 |
| > 100 µM (inactive) | Cc1ccc(CNC(=O)CCNS(=O)(=O)c2ccc3[nH]c(=O)oc3c2)cc1 |
| > 100 µM (inactive) | O=C(CCNS(=O)(=O)c1ccc2[nH]c(=O)oc2c1)NCc1ccccc1Cl |
| > 100 µM (inactive) | O=C(CCNS(=O)(=O)c1ccc2[nH]c(=O)oc2c1)NCCc1ccc(O)cc1 |
| > 100 µM (inactive) | Cc1ccc(C)c(NC(=O)CCNS(=O)(=O)c2ccc3ccccc3c2)c1 |
| > 100 µM (inactive) | Cc1ccc(C)c(NC(=O)C2CCCN(S(=O)(=O)c3ccc4c(c3)oc(=O)n4C)C2)c1 (configuration not stated) |
| > 100 µM (inactive) | COc1ccc(CNC(=O)CCNS(=O)(=O)c2ccc3c(c2)CCC3)c(OC)c1 |
| > 100 µM (inactive) | O=C(CCS(=O)(=O)Nc1ccc2[nH]c(=O)oc2c1)NCc1ccccc1Cl |
| > 100 µM (inactive) | O=C(CCNS(=O)(=O)c1ccc2[nH]c(=O)oc2c1)Nc1ccc2c(c1)OCO2 |
| > 100 µM (inactive) | COc1ccc(NC(=O)CCCNS(=O)(=O)c2ccc3[nH]c(=O)oc3c2)cc1OC |

The next lines start with the compound.

| Compound | IC50 |
| --- | --- |
| O=C(N/N=C/c1cccc(Cl)c1Cl)c1cc(O)c(O)c(O)c1 | 64.3 µM |
| C/C(=N\NC(=O)c1cc(O)c(O)c(O)c1)c1ccc(O)cc1O | > 100 µM (inactive) |
| O=c1[nH]c2ccc(S(=O)(=O)NCc3ccc4c(c3)OCO4)cc2o1 | > 100 µM (inactive) |
| O=c1[nH]c2ccc(S(=O)(=O)NCCc3ccc4c(c3)OCO4)cc2o1 | > 100 µM (inactive) |
| CC(C)Oc1ccc(CNC(=O)C2CCCN(S(=O)(=O)c3ccc4[nH]c(=O)oc4c3)C2)cc1 (configuration not stated) | > 100 µM (inactive) |
| CCc1ccc(NC(=O)C2CCCN(S(=O)(=O)c3ccc4c(c3)oc(=O)n4C)C2)cc1 (configuration not stated) | > 100 µM (inactive) |
| O=C(N/N=C/c1ccc(F)cc1F)c1ccc(O)cc1 | > 100 µM (inactive) |
| O=C(N/N=C/c1ccccc1Cl)c1cc(O)c(O)c(O)c1 | > 100 µM (inactive) |
| CCOc1cc(C(=O)N/N=C/c2c(F)cccc2Cl)cc(OCC)c1OCC | > 100 µM (inactive) |
| O=C(CCS(=O)(=O)Nc1ccc2[nH]c(=O)oc2c1)NCc1cccc(Cl)c1 | > 100 µM (inactive) |
| O=C(N/N=C/c1c(F)cccc1Cl)c1ccc(O)cc1O | > 100 µM (inactive) |
| COc1ccc(NS(=O)(=O)c2ccc3[nH]c(=O)oc3c2)cc1OC | > 100 µM (inactive) |
| O=C(N/N=C/c1ccccc1F)c1ccccc1OCc1ccccc1 | > 100 µM (inactive) |
| CC(C)c1ccc(/C=N/NC(=O)c2cc(O)c(O)c(O)c2)cc1 | 10.9 µM |
| CCOc1ccc(CNC(=O)C2CCCN(S(=O)(=O)c3ccc4[nH]c(=O)oc4c3)C2)cc1OC (configuration not stated) | > 100 µM (inactive) |
| CC(C)(C)c1ccc(/C=N/NC(=O)c2cc(O)c(O)c(O)c2)cc1 | > 100 µM (inactive) |
| COc1ccc(OC)c(NC(=O)C2CCCN(S(=O)(=O)c3ccc4c(c3)oc(=O)n4C)C2)c1 (configuration not stated) | > 100 µM (inactive) |
| O=C(N/N=C/c1c(F)cccc1Cl)c1ccc(O)cc1 | > 100 µM (inactive) |
| O=C(N/N=C/c1c(F)cccc1F)c1ccc(O)cc1 | > 100 µM (inactive) |
| CN(C)c1ccc(CNC(=O)C2CCCN(S(=O)(=O)c3ccc4[nH]c(=O)oc4c3)C2)cc1 (configuration not stated) | > 100 µM (inactive) |
| CSc1cccc(NC(=O)C2CCCN(S(=O)(=O)c3ccc4c(c3)oc(=O)n4C)C2)c1 (configuration not stated) | > 100 µM (inactive) |
| Cc1ccccc1CNC(=O)C1CCCN(S(=O)(=O)c2ccc3[nH]c(=O)oc3c2)C1 (configuration not stated) | > 100 µM (inactive) |
| COc1ccc(/C=N\NC(=O)c2cc(O)c(O)c(O)c2)cc1CN1CCN(c2ccc(F)cc2)CC1 | > 100 µM (inactive) |
